{"source": "patent US9079913B2", "about": "“Spiro-oxindole MDM2 antagonists” (The Regents of the University of Michigan, priority 2009, dated 2015)", "key": {"[1]": {"molecular_target": "recombinant human His-tagged MDM2 protein (residues 1-118) (Homo sapiens (Human), UniProt Q00987)", "sequence (Q00987 1-118)": "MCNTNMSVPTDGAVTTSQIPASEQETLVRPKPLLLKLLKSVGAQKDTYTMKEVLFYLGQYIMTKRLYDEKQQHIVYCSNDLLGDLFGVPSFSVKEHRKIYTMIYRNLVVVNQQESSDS", "assay": "Fluorescence-polarization MDM2 binding assay;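 also: fluorescence polarization read after three hours of incubation in potassium phosphate buffer containing bovine gamma globulin and Triton X-100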", "experimental": "The assay was performed in the buffer: 100 mM potassium phosphate, pH 7.5; 100 μg/mL bovine gamma globulin; 0.02% sodium azide, 0.01% Triton X-100) and the polarization values were measured after 3 h of incubation using an ULTRA READER (Tecan U.S. Inc., Research Triangle Park, N.C.). […] The Kd value was calculated using the equation: Kd value=IC50−L0/2.\nThe polarization values were measured after 3 h of incubation. […] Curve fitting was performed using [sequence] PRISM software (GraphPad Software, Inc., San Diego, Calif.). […] Compounds shown in Tables 19A-D as the free base were tested either as the free base or as the CF3CO2H (TFA) or HCl salt."}, "[2]": {"test_system": "Isogenic HCT-116 colon cancer cell lines", "assay": "cells", "format": "cell-based", "experimental": "Cells were seeded in 96-well flat bottom cell culture plates at a density of 2−3×10^3 cells/well with compounds and incubated for 4 days."}, "[3]": {"test_system": "cancer cell lines with wild-type p53 / mutated or deleted p53 (ATCC)", "assay": "Cell growth assay (WST-8), other cancer cell lines", "format": "cell-based"}, "[4]": {"conditions": "Table 19A, FP binding assay, read-out: MDM2 IC50"}, "[5]": {"conditions": "Homo sapiens, HCT-116, read-out: HCT-116 (p53-/-) IC50, Table 19A, HCT-116 p53-/-, cell growth"}, "[6]": {"conditions": "Homo sapiens, HCT-116, read-out: HCT-116 (p53 wild-type) IC50, Table 19A, HCT-116 p53 wild-type, cell growth"}, "[7]": {"conditions": "Homo sapiens, LNCaP, Table 19A, LNCAP cells, p53 wild-type, cell growth, read-out: LNCAP (p53 wild-type) IC50"}, "[8]": {"conditions": "Homo sapiens, PC-3, Table 19A, PC-3 cells, deleted p53, cell growth, read-out: PC-3 (deleted p53) IC50"}, "[9]": {"conditions": "Table 19B, read-out: Binding affinities to MDM2 protein as determined by FP based assay IC50"}, "[10]": {"conditions": "Homo sapiens, HCT-116, read-out: Inhibition of cell growth IC50, HCT116 p53 KO, Table 19B, HCT116 p53 KO"}, "[11]": {"conditions": "Homo sapiens, HCT-116, read-out: Inhibition of cell growth IC50, HCT116 p53 WT, Table 19B, HCT116 p53 WT"}, "[12]": {"conditions": "Homo sapiens, LNCaP, Table 19B, LNCaP cells, read-out: Inhibition of cell growth IC50, LNCaP"}, "[13]": {"conditions": "Homo sapiens, PC-3, Table 19B, PC3 cells, read-out: Inhibition of cell growth IC50, PC3"}, "[14]": {"conditions": "Table 19D, read-out: MDM2 Binding Affinities IC50"}, "[15]": {"conditions": "Homo sapiens, HCT-116, read-out: HCT116p53KO IC50, Table 19D, HCT116 p53KO"}, "[16]": {"conditions": "Homo sapiens, HCT-116, read-out: HCT116p53WT IC50, Table 19D, HCT116 p53WT"}, "[17]": {"conditions": "Homo sapiens, LNCaP, Table 19D, LNCaP cells, read-out: LNCaP IC50"}, "[18]": {"conditions": "Homo sapiens, PC-3, Table 19D, PC3 cells, read-out: PC3 IC50"}, "[19]": {"conditions": "Homo sapiens, SJSA-1, Table 19A, SJSA-1 cells, p53 wild-type, cell growth, read-out: SJSA-1 (p53 wild-type) IC50"}}, "note": "Read-outs that look alike come from different tables or passages of the source."}
{"compound": "CC(C)(C)C[C@H]1N[C@@H](C(=O)NCC2CC(O)C(O)C2)[C@H](c2cccc(Cl)c2)[C@@]12C(=O)Nc1cc(Cl)c(F)cc12", "note": "(some centres unmarked) [MI-519-36]", "values": [{"measurement": "IC50", "setting": "[1]; [4]", "result": "< 1000", "unit": "nM"}, {"measurement": "IC50", "setting": "[2]; [5]", "result": "29800 ± 6500", "unit": "nM"}, {"measurement": "IC50", "setting": "[2]; [6]", "result": "1200 ± 600", "unit": "nM"}, {"measurement": "IC50", "setting": "[3]; [7]", "result": "900 ± 100", "unit": "nM"}, {"measurement": "IC50", "setting": "[3]; [8]", "result": "20600 ± 5300", "unit": "nM"}]}
{"compound": "CC(C)CC(C)(C)C[C@H]1N[C@@H](C(=O)NCC[C@H](O)CO)[C@H](c2ccc(F)c(Cl)c2)[C@@]12C(=O)Nc1cc(F)c(F)cc12", "note": "[MI-736]", "values": [{"measurement": "IC50", "setting": "[1]; [9]", "result": "< 1000", "unit": "nM"}, {"measurement": "IC50", "setting": "[2]; [10]", "result": "4400 ± 900", "unit": "nM"}, {"measurement": "IC50", "setting": "[2]; [11]", "result": "1000 ± 200", "unit": "nM"}, {"measurement": "IC50", "setting": "[3]; [12]", "result": 900, "unit": "nM"}, {"measurement": "IC50", "setting": "[3]; [13]", "result": "6300 ± 1200", "unit": "nM"}]}
{"compound": "O=C(NCC[C@H](O)CO)[C@@H]1N[C@H](CC2CCCCC2)[C@]2(C(=O)Nc3cc(Cl)c(F)cc32)[C@H]1c1cccc(Cl)c1", "note": "[MI-716B]", "values": [{"measurement": "IC50", "setting": "[1]; [9]", "result": "< 1000", "unit": "nM"}, {"measurement": "IC50", "setting": "[2]; read-out: Inhibition of cell growth IC50, HCT116 p53 KO, Table 19B, HCT116 p53 KO", "result": "11500 ± 700", "unit": "nM"}, {"measurement": "IC50", "setting": "[2]; read-out: Inhibition of cell growth IC50, HCT116 p53 WT, Table 19B, HCT116 p53 WT", "result": "600 ± 200", "unit": "nM"}, {"measurement": "IC50", "setting": "[3]; Table 19B, LNCaP cells, read-out: Inhibition of cell growth IC50, LNCaP", "result": "860 ± 300", "unit": "nM"}, {"measurement": "IC50", "setting": "[3]; Table 19B, PC3 cells, read-out: Inhibition of cell growth IC50, PC3", "result": "9000 ± 2800", "unit": "nM"}]}
{"compound": "CC(C)(C)C[C@H]1N[C@@H](C(=O)N[C@H]2CC[C@@H](N)C2)[C@H](c2cccc(Cl)c2F)[C@@]12C(=O)Nc1cc(Cl)ccc12", "note": "[MI-519-55]", "values": [{"measurement": "IC50", "setting": "[1]; [14]", "result": "< 1000", "unit": "nM"}, {"measurement": "IC50", "setting": "[2]; [15]", "result": "> 5000", "unit": "nM"}, {"measurement": "IC50", "setting": "[2]; [16]", "result": "< 2000", "unit": "nM"}, {"measurement": "IC50", "setting": "[3]; [17]", "result": "< 2000", "unit": "nM"}, {"measurement": "IC50", "setting": "[3]; [18]", "result": "> 3000", "unit": "nM"}, {"measurement": "IC50", "setting": "[3]; Homo sapiens, Table 19D, SJSA-1 cells, unit inferred, read-out: SJSA-1", "result": "< 3000", "unit": "nM"}]}
{"compound": "CC(C)(C)C[C@H]1N[C@@H](C(=O)NC2CCC(N)CC2)[C@H](c2cccc(Cl)c2)[C@@]12C(=O)Nc1cc(Cl)c(F)cc12", "note": "(some centres unmarked) [MI-776]", "values": [{"measurement": "IC50", "setting": "[1]; [4]", "result": "< 1000", "unit": "nM"}, {"measurement": "IC50", "setting": "[2]; [6]", "result": 2700, "unit": "nM"}, {"measurement": "IC50", "setting": "[3]; [7]", "result": 2400, "unit": "nM"}, {"measurement": "IC50", "setting": "[3]; [19]", "result": 3200, "unit": "nM"}]}
{"compound": "CC(C)C[C@H](N)C(=O)OC1CCC(NC(=O)[C@@H]2N[C@H](CC(C)(C)C)[C@]3(C(=O)Nc4cc(Cl)ccc43)[C@H]2c2cccc(Cl)c2F)CC1", "note": "(some centres unmarked) [MI-903]", "values": [{"measurement": "IC50", "setting": "[1]; [4]", "result": "< 3000", "unit": "nM"}, {"measurement": "IC50", "setting": "[2]; [5]", "result": 12100, "unit": "nM"}, {"measurement": "IC50", "setting": "[2]; [6]", "result": "< 3000", "unit": "nM"}, {"measurement": "IC50", "setting": "[3]; [7]", "result": "< 3000", "unit": "nM"}, {"measurement": "IC50", "setting": "[3]; [8]", "result": 3500, "unit": "nM"}, {"measurement": "IC50", "setting": "[3]; [19]", "result": "< 3000", "unit": "nM"}]}
{"compound": "CC(C)CC(C)(C)C[C@H]1N[C@@H](C(=O)NCC[C@H](O)CO)[C@H](c2cccc(Cl)c2)[C@@]12C(=O)Nc1cc(Cl)c(F)cc12", "note": "[MI-725]", "values": [{"measurement": "IC50", "setting": "[1]; [9]", "result": "< 1000", "unit": "nM"}, {"measurement": "IC50", "setting": "[2]; [10]", "result": "5800 ± 2900", "unit": "nM"}, {"measurement": "IC50", "setting": "[2]; [11]", "result": 700, "unit": "nM"}, {"measurement": "IC50", "setting": "[3]; [12]", "result": "800 ± 100", "unit": "nM"}, {"measurement": "IC50", "setting": "[3]; [13]", "result": "4700 ± 1000", "unit": "nM"}]}
{"compound": "CC(C)(C)C[C@H]1N[C@@H](C(=O)NCC[C@H](O)CO)[C@H](c2ccc(F)c(F)c2)[C@@]12C(=O)Nc1cc(F)c(F)cc12", "note": "[MI-519-12]", "values": [{"measurement": "IC50", "setting": "[1]; [14]", "result": "< 10000", "unit": "nM"}, {"measurement": "IC50", "setting": "[2]; [15]", "result": "> 10000", "unit": "nM"}, {"measurement": "IC50", "setting": "[2]; [16]", "result": "< 3000", "unit": "nM"}, {"measurement": "IC50", "setting": "[3]; [17]", "result": "< 3000", "unit": "nM"}, {"measurement": "IC50", "setting": "[3]; [18]", "result": "> 10000", "unit": "nM"}]}
{"compound": "CN(C)C[C@@H](O)CCNC(=O)[C@@H]1N[C@H](CC(C)(C)C)[C@]2(C(=O)Nc3cc(Cl)c(F)cc32)[C@H]1c1ccc(F)c(Cl)c1", "note": "[MI-319-28]", "values": [{"measurement": "IC50", "setting": "[1]; Table 19C, read-out: Bidning affinities to MDM2 as determined using FP assay IC50", "result": "< 5000", "unit": "nM"}, {"measurement": "IC50", "setting": "[2]; Homo sapiens, HCT-116, read-out: Cell growth inhibition using WST assay, HCT116 p53KO IC50, Table 19C, HCT116 p53KO", "result": "> 5000", "unit": "nM"}, {"measurement": "IC50", "setting": "[2]; Homo sapiens, HCT-116, read-out: Cell growth inhibition using WST assay, HCT116 p53WT IC50, Table 19C, HCT116 p53WT", "result": "< 5000", "unit": "nM"}, {"measurement": "IC50", "setting": "[3]; Homo sapiens, LNCaP, Table 19C, LNCaP cells, read-out: Cell growth inhibition using WST assay, LNCaP IC50", "result": "< 5000", "unit": "nM"}, {"measurement": "IC50", "setting": "[3]; Homo sapiens, PC-3, Table 19C, PC3 cells, read-out: Cell growth inhibition using WST assay, PC3 IC50", "result": "> 5000", "unit": "nM"}]}
{"compound": "CC(C)(C)C[C@H]1N[C@@H](C(=O)NC2CCC(OC(=O)CN)CC2)[C@H](c2cccc(Cl)c2F)[C@@]12C(=O)Nc1cc(Cl)ccc12", "note": "(some centres unmarked) [MI-901]", "values": [{"measurement": "IC50", "setting": "[1]; [4]", "result": "< 1000", "unit": "nM"}, {"measurement": "IC50", "setting": "[2]; [5]", "result": "> 10000", "unit": "nM"}, {"measurement": "IC50", "setting": "[2]; [6]", "result": "< 3000", "unit": "nM"}, {"measurement": "IC50", "setting": "[3]; [7]", "result": "< 3000", "unit": "nM"}, {"measurement": "IC50", "setting": "[3]; [8]", "result": "> 5000", "unit": "nM"}, {"measurement": "IC50", "setting": "[3]; [19]", "result": "< 3000", "unit": "nM"}]}
{"compound": "CC(C)(C)C[C@H]1N[C@@H](C(=O)NCC[C@H](O)CO)[C@H](c2ccc(F)c(Cl)c2)[C@@]12C(=O)Nc1cc(F)ccc12", "note": "[MI-519-14]", "values": [{"measurement": "IC50", "setting": "[1]; [14]", "result": "< 1000", "unit": "nM"}, {"measurement": "IC50", "setting": "[2]; [15]", "result": "> 10000", "unit": "nM"}, {"measurement": "IC50", "setting": "[2]; [16]", "result": "< 5000", "unit": "nM"}, {"measurement": "IC50", "setting": "[3]; [17]", "result": "< 5000", "unit": "nM"}, {"measurement": "IC50", "setting": "[3]; [18]", "result": "> 10000", "unit": "nM"}]}
{"compound": "CCC(C)(C)C[C@H]1N(C)[C@@H](C(=O)NCC[C@H](O)CO)[C@H](c2cccc(Cl)c2F)[C@@]12C(=O)Nc1cc(F)c(F)cc12", "note": "[MI-723]", "values": [{"measurement": "IC50", "setting": "[1]; [9]", "result": "< 5000", "unit": "nM"}, {"measurement": "IC50", "setting": "[2]; [10]", "result": 51300, "unit": "nM"}, {"measurement": "IC50", "setting": "[2]; [11]", "result": 2420, "unit": "nM"}, {"measurement": "IC50", "setting": "[3]; [12]", "result": 2300, "unit": "nM"}, {"measurement": "IC50", "setting": "[3]; [13]", "result": 24600, "unit": "nM"}]}
